Data reported in patent publication US8735622B2, “Histone demethylase inhibitors and methods for using the same” (The Regents of the University of Colorado, a body corporate, priority 2011, dated 2014).
“Also recorded” adds a separate entry of the source. Where two headings read alike, the source gives them in different places.

Experiments:
[1] = system: prolyl hydroxylases (PHDs); experiment: Cellular HIF-1α level (prolyl hydroxylase specificity) in HeLa cells; format: cell-based, human; conditions: 24 hours, methylstat 5, 10, 15 μM
Source text: (§1) To assess the specificity of methylstat in vivo, another iron(II)- and α-ketoglutarate-dependent dioxygenases, prolyl hydroxylases (PHDs), was examined. PHDs have been reported to regulate normoxic inactivation of hypoxia-inducible factors (HIFs) by hydroxylating specific prolyl residues of HIFs. […] DMOG and DFO have been used to mimic hypoxia conditions by inhibiting PHDs in vivo. […] Similar results were also observed in HeLa cells (see FIG. 7).
(§2) Total lysates of cells were generated from the cells lysed in CelLytic M Cell Lysis (Sigma) with protease inhibitor cocktail (Sigma), mixed with 2×LSB buffer (100 mM Tris-HCl pH 6.8, 200 mM DTT, 4% SDS, 20% glycerol and 0.2% bromophenol blue) and boiled for 5 min before SDS-PAGE. BCA assay (Thermo) was applied for protein qualification.

[2] = target: T1, human GASC1 (GST-GASC1(1-420)) (Homo sapiens, UniProt Q9H3R0); experiment: GASC1 enzyme activity assay (DELFIA); format: biochemical; conditions: in vitro
T1 construct: corresponding to amino acid 1-420 was cloned and purified; made in house; host or cells: Escherichia coli BL-21
T1 sequence (Q9H3R0 1-420): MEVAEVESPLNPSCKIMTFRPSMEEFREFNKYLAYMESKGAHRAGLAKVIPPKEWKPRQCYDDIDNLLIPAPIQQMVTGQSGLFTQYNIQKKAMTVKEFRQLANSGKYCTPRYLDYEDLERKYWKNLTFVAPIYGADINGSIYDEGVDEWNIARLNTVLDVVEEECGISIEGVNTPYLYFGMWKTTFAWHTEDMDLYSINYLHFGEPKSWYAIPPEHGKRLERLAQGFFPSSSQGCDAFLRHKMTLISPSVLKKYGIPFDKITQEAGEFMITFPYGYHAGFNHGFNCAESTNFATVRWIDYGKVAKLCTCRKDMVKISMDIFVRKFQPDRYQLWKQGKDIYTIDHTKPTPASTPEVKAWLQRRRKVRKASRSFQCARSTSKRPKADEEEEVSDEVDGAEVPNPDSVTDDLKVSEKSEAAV
Protocol: In order to evaluate the inhibitory activity of 1 in vitro, a GST-fusion protein of the catalytic N-terminus of human GASC1 (gene amplified in squamous cell carcinoma 1) corresponding to amino acid 1-420 was cloned and purified. […] To evaluate the enzyme specificity of 1, the activity of 1 was examined against several other related enzymes in vitro.
The enzyme activity assays for GASC1 and JMJD2A were established on the DELFIA platform. DELFIA assays were performed in white, opaque 384-well plates coated with Streptavidin (Perkin Elmer). GST-GASC1(1-420) was diluted to 200 ng/well in 20 mM Tris HCl pH 8.5/2 mM glutathione and added in a volume of 20 μL. Blank wells received Tris/glutathione buffer only. Test compounds were diluted in DMSO and […] was pinned into the wells. Blank and control wells received only compound buffer. The reactions were initiated by the addition of 500 nM biotin-H3(1-20)K9me3 substrate, 10 μM FeSO4, 100 μM alpha-ketoglutarate in a volume of 20 μL, and incubated at room temperature for 60 minutes. The plates were washed 3 times with 100 μL of Wash Buffer (50 mM Tris pH 7.4, 150 mM NaCl, 0.05% Tween 20, 0.2% BSA). […] Time resolved fluorescence was measured after 45 minutes on an Envision Microplate Imager (Perkin Elmer Life Sciences) with 400 μs delay, excitation at 360 nm, and emission at 620 nm.

[3] = system: histone methylation marks in MCF7 cells; experiment: Western blotting of histone methylation marks in MCF7 cells; format: cell-based, human; conditions: MCF7 cells, 5, 10, 15 μM, 48 hours
[4] = system: histone methylation marks in KYSE150 cells; experiment: Western blotting of histone methylation marks in KYSE150 cells; format: cell-based, human; conditions: KYSE150 cells, 5, 10, 15 μM, 48 hours
Protocol: Next, the cellular effects of methylstat were evaluated on a variety of histone methylation marks in KYSE150 cells. DMOG and DFO were used as positive controls, since they are known cell-active inhibitors of iron (II)- and α-ketoglutarate-dependent dioxygenases.
as §2
Histone extraction was generated from the cells lysed in Triton Extraction Buffer (TEB: PBS containing 0.5% Triton X 100 (v/v), 2 mM phenylmethylsulfonyl fluoride (PMSF), 0.02% (w/v) NaN3) at the density of 10^7 cells/mL. 0.2 N HCl was used to extract histone over night at 4° C.

[5] = system: prolyl hydroxylases (PHDs); experiment: Cellular HIF-1α level (prolyl hydroxylase specificity) in MCF7 cells; format: cell-based, human; conditions: 24 hours, methylstat up to 15 μM, DFO 150 μM, DMOG 1 and 2 mM
Source text: as §1, §2

HDACs = experiment: Histone deacetylases (HDACs) enzyme inhibition assay (Fluor de Lys); format: biochemical; conditions: in vitro
Protocol: The enzyme activity assay for HDAC was carried out using Fluor de Lys Fluorescent Assay System (BML-AK500, Enzo Life Sciences Inc, NY USA). The assay was performed as the manufactory guide in white 384-well plates. Time resolved fluorescence was measured on a Beckman Coulter DTX 880 plate reader with 250 ms delay, excitation at 360 nm, and emission at 530 nm.

[6] = system: H3K4me3 and H3K9me3 levels in MCF7 cells; experiment: Quantitative immunostaining assay of H3K4me3 and H3K9me3 in MCF7 cells; format: cell-based, human; conditions: for EC50: Homo sapiens, 48 hours, immunostaining image quantification
Protocol: To quantify the cellular activity of methylstat, a quantitative image-based assay was used. […] The cellular effects of methylstat were also cell type-specific.
For quantified immunostaining experiments, KYSE150 or MCF7 cells were seeded in a 96-well plate at 10,000 cells per well and incubated at 37° C. for 24 hours. The medium was replaced and methylstat in DMSO was added at the concentration as indicated. After incubation for another 48 hours, immunostaining procedure was performed as described above using anti-H3K9me3 or anti-H3K4me3 primary antibody. Fluorescent images of cells were acquired by a Nikon Eclipse 90i fluorescence microscope and analyzed using the Cell Scoring analysis module of MetaMorph 7.0 software.

inhibition of enzymatic activity of GASC1 [2]: did not significantly inhibit | inhibition of histone deacetylases (HDACs) (HDACs): did not significantly inhibit | EC50 ([6]; read-out: EC50 for H3K4me3): 6.7 µM | EC50 ([6]; read-out: EC50 for H3K9me3): 6.3 µM
SMILES: COC(=O)/C=C/C(=O)N(O)CCCCNCc1ccc(COC(=O)Nc2cccc3ccccc23)cc1 [methylstat]
cellular HIF-1α levels / prolyl hydroxylase inhibition [1]: did not significantly inhibit prolyl hydroxylases | hypermethylation of histone proteins (Western blot) [3]: induced concentration-dependent hypermethylation of lysine and arginine residues; also recorded: induced hypermethylations of histone proteins in a concentration-dependent manner | hypermethylation of histone proteins (Western blot) [4]: induced hypermethylation of lysine residues; also recorded: induced hypermethylations of histone proteins in a concentration-dependent manner | cellular HIF-1α levels / prolyl hydroxylase inhibition [5]: did not affect the cellular HIF-1α levels; also recorded: did not significantly inhibit prolyl hydroxylases | increase of the H3K9me3 mark [6]: 4.5 fold
